Experimental data taken from patent US11597919B2, “Systems, methods and compositions for sequence manipulation with optimized functional CRISPR-Cas systems” (The Broad Institute, Inc., priority 2013, dated 2023).

B1: Cas9 (A175-307): Cas9 mutant lacking the REC2 domain, SEQ ID NO: 116 (protein)
chain: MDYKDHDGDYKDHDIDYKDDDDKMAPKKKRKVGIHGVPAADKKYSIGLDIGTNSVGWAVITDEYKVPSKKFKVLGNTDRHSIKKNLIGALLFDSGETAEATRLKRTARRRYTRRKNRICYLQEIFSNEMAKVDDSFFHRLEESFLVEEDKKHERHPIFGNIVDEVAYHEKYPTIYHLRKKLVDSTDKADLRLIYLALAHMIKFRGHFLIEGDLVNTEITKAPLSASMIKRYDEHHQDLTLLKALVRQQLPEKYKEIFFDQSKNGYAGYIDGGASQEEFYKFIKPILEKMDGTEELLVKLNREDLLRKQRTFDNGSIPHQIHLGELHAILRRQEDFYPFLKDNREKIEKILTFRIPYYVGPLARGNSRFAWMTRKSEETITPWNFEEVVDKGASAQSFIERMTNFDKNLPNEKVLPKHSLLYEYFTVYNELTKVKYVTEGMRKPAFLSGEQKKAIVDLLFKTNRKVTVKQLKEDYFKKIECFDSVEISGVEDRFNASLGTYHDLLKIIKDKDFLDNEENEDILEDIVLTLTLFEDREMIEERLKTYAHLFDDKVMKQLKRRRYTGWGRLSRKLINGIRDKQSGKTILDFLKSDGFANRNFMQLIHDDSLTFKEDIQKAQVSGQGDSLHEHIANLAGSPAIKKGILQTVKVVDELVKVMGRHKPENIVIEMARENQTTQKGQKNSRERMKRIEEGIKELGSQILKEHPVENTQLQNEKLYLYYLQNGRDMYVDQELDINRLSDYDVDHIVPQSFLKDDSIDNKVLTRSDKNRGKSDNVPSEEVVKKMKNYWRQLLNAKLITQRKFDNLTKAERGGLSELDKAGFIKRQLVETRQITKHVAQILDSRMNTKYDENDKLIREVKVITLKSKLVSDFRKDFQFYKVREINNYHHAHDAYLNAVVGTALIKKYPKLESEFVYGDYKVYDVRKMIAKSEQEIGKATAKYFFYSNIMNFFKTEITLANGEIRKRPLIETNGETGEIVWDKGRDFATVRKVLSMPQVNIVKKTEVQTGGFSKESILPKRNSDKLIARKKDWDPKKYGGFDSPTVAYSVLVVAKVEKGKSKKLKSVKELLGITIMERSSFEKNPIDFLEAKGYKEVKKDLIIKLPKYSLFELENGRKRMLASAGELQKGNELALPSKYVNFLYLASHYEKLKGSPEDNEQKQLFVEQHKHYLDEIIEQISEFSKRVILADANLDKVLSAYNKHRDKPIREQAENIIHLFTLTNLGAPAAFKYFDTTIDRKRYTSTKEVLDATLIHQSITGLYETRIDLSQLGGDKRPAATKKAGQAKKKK

Key:
[1] = test system: Factor VII; settings: LNP siRNA systems containing these lipids; cited from earlier work
[2] = test system: genomic DNA in human embryonic kidney 293FT (HEK293FT) cells; experiment: SURVEYOR nuclease assay of Cas9 and sgRNA mutants (Example 12); assay type: cell-based; settings: indel, SURVEYOR, n=3
Experimental: Cells were transfected using Lipofectamine 2000 (Life Technologies) at 70-80% confluency following the manufacturer's recommended protocol.
Genomic DNA was extracted using the QuickExtract DNA Extraction Solution (Epicentre) following the manufacturer's protocol.
400 ng total of the purified PCR products were mixed with 2 μl 10× Taq DNA Polymerase PCR buffer (Enzymatics) and ultrapure water to a final volume of 20 μl, and subjected to a re-annealing process to enable heteroduplex formation: 95° C. for 10 min, 95° C. to 85° C. ramping at −2° C./s, 85° C. to 25° C. at −0.25° C./s, and 25° C. hold for 1 min. After re-annealing, products were treated with SURVEYOR nuclease and SURVEYOR enhancer S (Transgenomics) following the manufacturer's recommended protocol, and analyzed on 4-20% Novex TBE poly-acrylamide gels (Life Technologies). Gels were stained with SYBR Gold DNA stain (Life Technologies) for 30 min and imaged with a Gel Doc gel imaging system (Bio-rad). Quantification was based on relative band intensities. Indel percentage was determined by the formula, 100×(1−(1−(b+c)/(a+b+c))^1/2), where a is the integrated intensity of the undigested PCR product, and b and c are the integrated intensities of each cleavage product.

Row | Molecule | gene silencing potency series [1] | activity relative to wild-type Cas9 [2]
1 | 1,2-dilinoleyloxy-keto-N,N-dimethyl-3-aminopropane [DLinKDMA] | DLinKC2-DMA>DLinKDMA>DLinDMA>>DLinDAP | 
2 | CCCCC/C=C\C/C=C\CCCCCCCC(=O)OCC(CN(C)C)OC(=O)CCCCCCC/C=C\C/C=C\CCCCC (centres unmarked) [DLinDAP, 1,2-dilineoyl-3-dimethylammonium-propane] | DLinKC2-DMA>DLinKDMA>DLinDMA>>DLinDAP | 
3 | CCCCC/C=C\C/C=C\CCCCCCCCOCC(CN(C)C)OCCCCCCCC/C=C\C/C=C\CCCCC (centres unmarked) [DLinDMA, 1,2-dilinoleyloxy-3-N,N-dimethylaminopropane] | DLinKC2-DMA>DLinKDMA>DLinDMA>>DLinDAP | 
4 | CCCCC/C=C\C/C=C\CCCCCCCCC1(CCCCCCCC/C=C\C/C=C\CCCCC)OCC(CCN(C)C)O1 (centres unmarked) [DLinKC2-DMA, 1,2-dilinoleyl-4-(2-dimethylaminoethyl)-[1,3]-dioxolane] | DLinKC2-DMA>DLinKDMA>DLinDMA>>DLinDAP | 
5 | B1 |  | ~50%
